Results from patent publication US11357749B2, “Methods for treating neutropenia” (Enzychem Lifesciences Corporation, priority 2014, dated 2022).

Experiments:
[1] = test system: STAT6; assay: STAT6 transcriptional activity reporter (luciferase) assay in HepG2 cells; format: cell-based, human; conditions: HepG2, 10 ng IL-4, PLAG 0.01-10 μg/ml, 12 hours
Procedure: By using STAT6 inhibitor (S6I), it is confirmed that the reduction of Complement 3 in HepG2 cells (human hepatocyte cell line) is regulated by STAT6. […] It is also confirmed that PLAG has selective efficacy on STAT6 over STAT1. FIG. 1 presents graphs showing STAT1 and STAT6 transcriptional activity in the PLAG treated HepG2 cells. NC refers to the unstimulated control cell. For the STAT1 assay, gene transfected HepG2 (human hepatocyte cell line) is treated with 10 ng of IFN-γ and serially diluted PLAG is added (0.01 μg/ml, 0.1 μg/ml, 1 μg/ml, and 10 μg/ml as shown) to see its effect on gene expression in the stimulated cell. For the STAT6 assay, gene transfected HepG2 cells are treated with 10 ng of IL-4 and again serially diluted PLAG is added (0.01 μg/ml, 0.1 μg/ml, 1 μg/ml, and 10 μg/ml as shown) to see its effect on gene expression in the stimulated cell. The assay is carried out following 12 hours incubation of treated cells.

[2] = test system: C3; assay: C3 mRNA (RT-PCR) in HepG2 cells; format: cell-based, human; conditions: 2 hours
Procedure: A liver cell line, HepG2 (American Type Culture Collection, ATCC, Rockville, Md.), is incubated and maintained at 37° C., 5% CO2 humid atmosphere in DMEM medium. When HepG2 cells, which are known to produce complement in culture, are treated with PLAG, the activity of complement is reduced effectively, as confirmed by RT-PCR of mRNA. In the RT-PCR, 5×10^5 number of HepG2 cells/ml are distributed into 12 well plates and induced C3 for 12 hours with 10% FCS. Then PLAG is added and further cultured for 2 hours. Cells are harvested and mRNA is isolated and RT-PCR is carried out with specific primer of C3; GAPDH is used as an internal control.

[3] = test system: HepG2 cells; assay: WST-1 cell viability assay in HepG2 cells; format: cell-based; conditions: HepG2, PLAG 1 to 100 μg/ml
Procedure: The incubated HepG2 cell lines are treated with PLAG (1˜100 μg/ml), followed by IL-4 and TNF-α, reacted for 1 hour, incubated for 18 hours at 37° C. and the supernatant isolated. Quantitation of the amount of C3 in the cellular culture medium (supernatant) from HepG2 cells is performed by ELISA using a commercially available monoclonal antibody (mAb, R&D Systems) and the manufacture's protocol; the results are presented in FIG. 3. C3 is expressed spontaneously under in vitro culture condition using 10% FCS added to HepG2 cells incubated for 12 hr. The cells are treated with different doses of PLAG from 1 to 100 μg/ml (Panel A, Panel B) or 10 and 100 μg/ml of S6I (Panel C), reacted with IL-4 and TNF-α for 1 hr and then incubated for 18 hr at 37° C. Cellular viability is confirmed using the WST-1 assay (Panel A).

[4] = test system: splenic nodules, primitive progenitor cells and megakaryocytes; assay: Colony forming units in spleen (CFUs) assay in heavily irradiated mice; format: in vivo; conditions: 50 mg/kg/d i.p. or p.o.
Procedure: In order to determine the in vivo effect of PLAG on the recovery of hematopoiesis, a CFUs assay is performed in heavily irradiated mice.

[5] = test system: Complement 3; assay: Complement 3 activation by chemotherapeutic agents in mouse model; format: in vivo; conditions: mice, Gemcitabine, Cyclophosphamide or Tamoxifen plus PLAG
Procedure: The effect of PLAG for treatment of neutropenia and thrombocytopenia induced by chemotherapy (CIN) is evaluated in an animal model. Anti-cancer agents (Gemcitabine 50 mg/kg, Cyclosphosphamide 100 mg/kg, or Tamoxifen 50 mg/kg) are dosed daily for 3 weeks; PLAG is also administered 50 mg/kg daily for 3 weeks. After three weeks, neutrophils are harvested and counted with Auto Hematology Analyzer BC-5300.
It is believed that the neutropenia and thrombocytopenia of these agents and other chemotherapeutic agents may be due at least in part to a specific complement-mediated toxicity. This is seen in FIG. 6.

[6] = test system: platelets; assay: Lipopolysaccharide-induced platelet reduction in mice; format: in vivo; conditions: 15 hours
Procedure: Mice are injected with 100 mg/kg phenylhydrazine (PHZ), i.p., to induce anemia and reduction of platelets. 5 mg/kg PLAG is administered to the mice orally and blood samples are taken at 3 and 13 days after. In addition, for comparison, normal mice which are not treated with phenylhydrazine are prepared as a normal group, and mice treated with PHZ and olive oil instead of PLAG are prepared as a control group. The blood samples taken from the mice are treated with 0.5 ml EDTA (Minicollect tube, Greiner bio-one, Austria) and concentration of platelet is measured using automated blood sample analyzer BC-6800 (Mindray, Shenzhen, China) by number of platelet per […] (k: 1,000).
The experiment is repeated using Tamoxifen (Tam), an anticancer agent, injected at the amount of 100 mg/kg, or lipopolysaccharide (LPS), an inflammation inducer, at the amount of 1 mg/kg to induce platelet reduction. Platelet concentration is measured 15 hours after PLAG treatment. For comparison, olive oil and PBS are used instead of PLAG as controls, respectively for the Tamoxifen and lipopolysaccharide experiment.

For `CCCCC/C=C\C/C=C\CCCCCCCC(=O)OC(COC(C)=O)COC(=O)CCCCCCCCCCCCCCC` (racemic) [PLAG, 1-palmitoyl-2-linoleoyl-3-acetylglycerol], the “transcriptional activity of STAT6” value [1] was “gradually decreased”, the “C3 expression (RT-PCR)” value ([2]; HepG2, 1 microgram/ml) was “somewhat” and the “C3 expression (RT-PCR)” value ([2]; HepG2, 10 microgram/ml) was “entirely”. For the same molecule, the “cellular viability (WST-1)” value [3] was “does not affect the cellular propagation and death”, the “number of splenic nodules and numbers of primitive progenitor cells and megakaryocytes” value [4] was “marked increase” and the “Complement 3 activation by chemotherapeutic agents” value [5] was “largely blocked”. For the same molecule, the “Platelet Conc.” value ([6]; LPS 1 mg/kg + PLAG 1 mg/kg) was 450.00 k/ul and the “Platelet Conc.” value ([6]; LPS 1 mg/kg + PLAG 2 mg/kg) was 553.33 k/ul.
